Experimental data taken from US20040048831A1, “Verifiable absorption drug delivery form based on cyclodextrins” (priority 2002, published 2004).

How the values were obtained:
[1] = Release of drugs from paper disk dosage forms in vitro (continuous elution by water, spectrophotometry); type: physicochemical; conditions: eluted disks dried and eluted by methanol (50 ml) overnight
[2] = as above; type: physicochemical; conditions: first milliliters of eluent
Method: To prepare the dosage form, cyclodextrin was dissolved in water (50% solutions for HPBCD, 20% for gamma-cyclodextrin and sulfopropyl beta-cyclodextrin), or aqueous ethanol for HPBCD (50% solution). This solution was saturated with drug by intensive stirring for two hours. The suspension was then filtered and then spotted on paper or filtration cloth and air dried.
Paper disks of 2 cm diameter and carrying drug: cyclodextrin inclusion complexes in the amounts specified in Table 1 below were continuously eluted by water and the amount of drug eluted was measured by spectrophotometry. For progesterone, a wavelength of 240 nm was used. Data had to be corrected since paper contains a minor component which elutes rapidly and absorbs at this wavelength. Prewashing of paper removes this complication. Amphotericin B content was analyzed using wavelength 410 nm and data previously published (M. Kajtar et al., Biopolymers, 28, 1585-1596, 1989).

[3] = Release of cyclodextrin and drug from paper disk dosage forms in vivo (kept under the tongue, residue extracted); conditions: for Progesterone left in disk, % of the originally present progesterone: progesterone:HPBCD paper disk, non-released disk = 100%
Method: Paper disks of 2 cm diameter containing only HPBCD were kept under the tongue for 3 to 4 minutes and dried after retrieval. The disks were then extracted by water (50 ml) overnight and soluble carbohydrates in the extracts measured using anthrone reagent (Methods in Carbohydrate Chemistry, Volume 1, page 523, wavelength used 620 nm). HPBCD is reactive toward this reagent. The control paper disk with HPBCD, but not released under the tongue, registered 100 units (arbitrary scale); the empty paper disk registered 1.8 units; disks loaded with HPBCD and released for 3 to 4 minutes under the tongue, 1.6 units.
Paper disks carrying progesterone:HPBCD combination, prepared as in Example 2 were kept under the tongue and, after retrieval, dried and extracted by water (50 ml) overnight. Progesterone in the extracts was measured by spectrophotometry using methods and precautions as in Example 2. When progesterone extracted from the original disks (i.e., not released under tongue) is taken as 100%, disks which were released for 5 minutes under the tongue yielded 3.8% of the originally present progesterone, and disks released for 10 minutes, 3.2%. Several minutes under the tongue thus releases nearly all drug into the oral cavity.

Q: Which “Additional drug release from eluted, dried disks by methanol” value [1] does the source give for `C[C@@H]1[C@H](O)[C@@H](C)/C=C/C=C/C=C/C=C/C=C/C=C/C=C/[C@H](O[C@@H]2O[C@H](C)[C@@H](O)[C@H](N)[C@@H]2O)C[C@@H]2O[C@](O)(C[C@@H](O)C[C@@H](O)[C@H](O)CC[C@@H](O)C[C@@H](O)CC(=O)O[C@H]1C)C[C@H](O)[C@H]2C(=O)O` [Amphotericin B] here?
A: further drug was release

Q: And the “Completeness of release of drug by water from cyclodextrin paper disks” value [2]?
A: only partial

Q: Which “Time for release of HPBCD into mouth” value ([3]; paper disk under the tongue) does the source give for `CC(O)COC[C@H]1O[C@@H]2O[C@H]3[C@H](O)[C@@H](O)[C@@H](O[C@H]4[C@H](O)[C@@H](O)[C@@H](O[C@H]5[C@H](O)[C@@H](O)[C@@H](O[C@H]6[C@H](O)[C@@H](O)[C@@H](O[C@H]7[C@H](O)[C@@H](O)[C@@H](O[C@H]8[C@H](O)[C@@H](O)[C@@H](O[C@H]1[C@H](O)[C@H]2O)O[C@@H]8COCC(C)O)O[C@@H]7COCC(C)O)O[C@@H]6COCC(C)O)O[C@@H]5COCC(C)O)O[C@@H]4COCC(C)O)O[C@@H]3COCC(C)O` (stereo partly drawn) [HPBCD, hydroxypropyl beta-cyclodextrin] here?
A: completed within a few minutes

Q: Which “Additional drug release from eluted, dried disks by methanol” value [1] does the source give for `CC(=O)[C@H]1CC[C@H]2[C@@H]3CCC4=CC(=O)CC[C@]4(C)[C@H]3CC[C@]12C` [Progesterone] here?
A: No additional release was observed

Q: What about the “Progesterone left in disk, % of the originally present progesterone” value ([3]; released 5 minutes under the tongue) of the same compound?
A: 3.8%

Q: And the “Progesterone left in disk, % of the originally present progesterone” value ([3]; released 10 minutes under the tongue)?
A: 3.2%

Q: What about the “Completeness of release of drug by water from cyclodextrin paper disks” value [2] of the same compound?
A: complete
